The target of one assay is T1, MCL1 173–329 (Homo sapiens, UniProt Q07820).
T1 construct: residues 173-329 (no N-terminal region, no transmembrane domain), E. coli, 6xHis-Smt3 tag cleaved by Ulp-1, wild type
Put plainly: isothermal titration calorimetry. The format is binding. (In general: In ITC the heat of successive injections is recorded.)

In another assay the target is T2, MBP-MCL1 (Homo sapiens, UniProt Q07820, K194A/K197A/R201A).
T2 construct: 6xHis-TEV tag cleaved, MBP kept; E. coli
Put plainly: isothermal titration calorimetry; crystal structure […] Å (soak). The format is binding.

Another assay has as its target MCL1 173–329 (human). Put plainly: ITC; hNoxa (20–38) (400 μM or 300 μM) titrated into 25 μM MCL1 173–329 or MBP-MCL1; autoITC200, 25°C, 25 mM Hepes pH 7.4, 100 mM NaCl, 0.1 mM TCEP, 4% DMSO; n ≥ 3, averaged KD.
Assay [1] has as its target T3, MBP-MCL1 (MBP, two-residue GS linker, MCL1 173–321 K194A/K197A/R201A) (human, UniProt Q07820 173-321, K194A | K197A | R201A).
T3 construct: two-residue linker between MBP and MCL1; MCL1, human, residues 173-321 with three alanine mutations in the disordered loop; only the 6XHis-Tev part was removed with TEV protease; Six of the seven deposited PDB entries hold this construct and one holds MCL1 173–321 without MBP; also called MBP-MCL1 fusion construct; MBP-MCL1 fusion protein; source: E. coli (Top 10 or BL21 (DE3)), purified (Ni2+ …)
Described as above. Conditions: both partners purified.

A word on the Kd: it is the equilibrium constant for the complex coming apart. Low readings indicate a tighter complex, high ones a looser complex.

Chain of MCL1 173–329 (human) (Q07820 173-329): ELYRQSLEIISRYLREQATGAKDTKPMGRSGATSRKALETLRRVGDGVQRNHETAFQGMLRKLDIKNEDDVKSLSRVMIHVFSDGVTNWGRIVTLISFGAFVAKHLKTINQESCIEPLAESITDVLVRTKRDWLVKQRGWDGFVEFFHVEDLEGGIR
T1 sequence (Q07820 173-329): as above
T2 sequence (Q07820 173-321 K194A/K197A/R201A): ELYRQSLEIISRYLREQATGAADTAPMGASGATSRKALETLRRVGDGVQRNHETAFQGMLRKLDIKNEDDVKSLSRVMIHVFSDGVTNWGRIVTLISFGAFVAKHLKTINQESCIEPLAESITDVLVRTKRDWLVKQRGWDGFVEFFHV
T3 sequence (Q07820 other isoform, or with tags, fused parts or gaps with the stated changes): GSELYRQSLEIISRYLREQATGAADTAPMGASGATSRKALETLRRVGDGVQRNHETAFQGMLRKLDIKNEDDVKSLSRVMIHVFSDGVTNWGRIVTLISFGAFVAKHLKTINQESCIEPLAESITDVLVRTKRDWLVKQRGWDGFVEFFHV

For the molecule `O=C(O)c1sc2cc(F)ccc2c1Cl` [compound 4, fragment 4], the Kd at MCL1 173–329 was 97 µM; at MBP-MCL1, 93 µM.

B1: hNoxa (20–38) (peptide, UniProt Q13794 20-38, looked up)
peptide: ELEVECATQLRRFGDKLNF
notes: Noxa, human, BH3 peptide, residues 20-38; also called BH3 peptide Noxa (20–38)
Consider B1, for which the dissociation constant Kd with MCL1 173–329 (human) amounted to 0.16 µM; in assay [1], 0.19 µM.

(Values after PMC4409056, “A Maltose-Binding Protein Fusion Construct Yields a Robust Crystallography Platform for MCL1” (PLoS ONE, 2015).)
